Measurements as given in patent US20250223295A1, “SOLID STATE FORMS OF RUCAPARIB TOSYLATE” (ASSIA CHEMICAL INDUSTRIES LTD., priority 2022, published 2025).
Entries after “also recorded” stand apart in the source; their conditions may differ.

Experiments:
Type in all cases: physicochemical
Thermal stability (XRPD) = settings: Heating 100° C., 30 minutes
Protocol: (§1) A sample is powdered in a mortar and pestle and applied directly on a silicon plate holder. The X-ray powder diffraction pattern was measured with Philips X'Pert PRO X-ray powder diffractometer, equipped with Cu irradiation source=1.54184 Å (Ångström), X'Celerator (2.022° 2θ) detector. Scanning parameters: angle range: 3-40 deg., step size 0.0167, time per step 37 s, continuous scan.
A sample of Rucaparib tosylate form X was subjected to heating up to 100° C. for 30 minutes.

[1] = Grinding experiments (XRPD); settings: for XRPD analysis results: 3 minutes
Protocol: as §1
Samples of Rucaparib tosylate form X were subjected to strong grinding, and to solvent drop grinding in water, ethanol (96%) and 2-propanol. Grinding was carried out on the samples alone, or in the presence of ethanol, water and 2-propanol. In these experiments, about 20-30 mg of the sample were placed in a mortar and ground with a pestle for 3 minutes. The solvent, when used, as added to the crystalline material before grinding, in a volume of 10 microlitres.

[2] = Storage stability at different relative humidities (XRPD); settings: for XRPD analysis results: 7 days
Protocol: as §1
Samples of Rucaparib tosylate form X (about 200 mg each) were subjected to conditions of different relative humidities at ambient temperature. XRPD analysis was performed on the samples after 7 days.
A sample of Rucaparib tosylate form X was subjected to 100% relative humidity at 25° C.

[3] = Exposure to solvent vapour (XRPD); settings: 25° C., 7 days
Protocol: as §1
Samples of Rucaparib tosylate form X (20-40 mg) were put in small vials and exposed to solvent vapours (2.5 ml each of ethanol, 96%, water and 2-propanol) at 25° C.

[4] = Stability to compression (XRPD); settings: for XRPD analysis results: after 1-5 minutes
Protocol: as §1
Samples of Rucaparib tosylate form X were subjected to pressures of 1000 kg and 2000 kg. XRPD analysis was performed on the samples after 1-5 minutes.

XRPD analysis results ([1]; Solvent-drop grinding (2-propanol), 10 microlitres): Form X
XRPD analysis results ([1]; Solvent-drop grinding (ethanol), 10 microlitres): Form X
XRPD analysis results ([1]; Solvent-drop grinding (water), 10 microlitres): Form X
XRPD analysis results ([1]; Strong grinding): Form X
XRPD analysis after the grinding experiment ([1]; all grinding conditions: alone or with ethanol, water, 2-propanol): no change in the starting material
XRPD analysis results ([2]; 20% relative humidity, ambient temperature, triplicate): Form X
Stability after exposure to high and low relative humidity ([2]; 20-100% relative humidity, ambient temperature, at least 7 days): stable
XRPD analysis results ([2]; 40% relative humidity, ambient temperature, triplicate): Form X
XRPD analysis results ([2]; 60% relative humidity, ambient temperature, triplicate): Form X
XRPD analysis results ([2]; 80% relative humidity, ambient temperature, triplicate): Form X
XRPD analysis, polymorphic change ([2]; 100% relative humidity, 25° C., 30 days, triplicate): no polymorphic change
XRPD analysis results ([2]; 100% relative humidity, ambient temperature, triplicate): Form X
XRPD analysis results ([3]; 2-propanol vapour): Form X
XRPD analysis results ([3]; Ethanol, 96% vapour): Form X
XRPD analysis results ([3]; Water vapour): Form X
XRPD analysis results ([4]; Pressure 1000 kg): No change
XRPD analysis results ([4]; Pressure 2000 kg): No change
Stability under high pressure conditions ([4]; pressures of 1000 kg and 2000 kg): stable
Substance: Rucaparib Tosylate [Rucaparib tosylate form X]
Result (XRPD analysis) (Thermal stability (XRPD)): no change in the starting material; also recorded: Form X
